# Experimental data: ChEMBL document CHEMBL1909046, “DrugMatrix in vitro pharmacology data”
# Assays:
# [1] = biological target: Protein kinase C alpha type (Homo sapiens, UniProt P17252); assay type: cell-based; conditions: sf9;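 also: inhibition of PKCalpha kinase activity measured in an enzyme assay with histone as the phosphorylation substrate; in other assays of this panel Not Active means under 50% inhibition at 10 µM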
# Melanocortin receptor 4 = Melanocortin receptor 4 (Homo sapiens, UniProt P32245); assay type: cell membranes, Membrane; conditions: hek293; also: in other assays of this panel Not Active means under 50% inhibition at 10 µM
# Chain of Melanocortin receptor 4 (P32245 whole entry): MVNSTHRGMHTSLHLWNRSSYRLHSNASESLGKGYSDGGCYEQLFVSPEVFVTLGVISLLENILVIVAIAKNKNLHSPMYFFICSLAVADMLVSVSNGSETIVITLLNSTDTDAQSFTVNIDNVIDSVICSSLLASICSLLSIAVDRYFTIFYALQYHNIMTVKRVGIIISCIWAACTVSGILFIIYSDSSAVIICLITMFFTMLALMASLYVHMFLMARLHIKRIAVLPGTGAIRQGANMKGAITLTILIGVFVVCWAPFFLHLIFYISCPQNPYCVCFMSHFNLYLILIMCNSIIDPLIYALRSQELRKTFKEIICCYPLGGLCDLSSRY
# [2] = biological target: T1, C-X-C chemokine receptor type 2 (Homo sapiens, UniProt P25025); assay type: cell membranes, Membrane; conditions: cho-k1; also: in other assays of this panel Not Active means under 50% inhibition at 10 µM
# T1 sequence (P25025 whole entry): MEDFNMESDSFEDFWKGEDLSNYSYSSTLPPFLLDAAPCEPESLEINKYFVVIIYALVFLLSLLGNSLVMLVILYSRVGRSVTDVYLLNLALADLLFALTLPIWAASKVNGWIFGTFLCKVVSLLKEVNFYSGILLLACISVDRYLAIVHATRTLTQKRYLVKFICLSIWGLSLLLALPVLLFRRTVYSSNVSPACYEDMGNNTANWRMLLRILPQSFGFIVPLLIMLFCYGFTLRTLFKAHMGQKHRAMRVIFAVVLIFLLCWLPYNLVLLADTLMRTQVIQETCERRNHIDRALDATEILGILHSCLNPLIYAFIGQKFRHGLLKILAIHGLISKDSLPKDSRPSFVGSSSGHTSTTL
# [3] = DRUGMATRIX: Interleukin IL-1 radioligand binding (ligand: [125I] interleukin 1beta); assay type: cell membranes, Membrane; conditions: nih3t3; Not Active = under 50% inhibition at 10 µM
# [4] = biological target: 5-hydroxytryptamine receptor 1B (Rattus norvegicus, UniProt P28564); assay type: cell membranes, Wistar, Cerebral cortex, Membrane; conditions: for Ki: read-out: Ki; as to all read-outs here: in other assays of this panel Not Active means under 50% inhibition at 10 µM
# Chain of 5-hydroxytryptamine receptor 1B (P28564 whole entry): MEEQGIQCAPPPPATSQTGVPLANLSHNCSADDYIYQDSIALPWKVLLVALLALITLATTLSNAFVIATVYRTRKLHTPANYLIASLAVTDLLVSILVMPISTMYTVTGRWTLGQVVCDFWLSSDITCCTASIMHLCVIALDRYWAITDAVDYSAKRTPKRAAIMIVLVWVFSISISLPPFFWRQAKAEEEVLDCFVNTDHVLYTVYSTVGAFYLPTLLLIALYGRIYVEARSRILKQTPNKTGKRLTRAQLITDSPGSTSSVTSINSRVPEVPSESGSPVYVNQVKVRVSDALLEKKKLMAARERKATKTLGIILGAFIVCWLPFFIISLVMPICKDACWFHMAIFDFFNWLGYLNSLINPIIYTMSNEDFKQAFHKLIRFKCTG
# Calcitonin receptor = biological target: T2, Calcitonin receptor (Homo sapiens, UniProt P30988); assay type: cell membranes, Membrane; conditions: t47d; also: in other assays of this panel Not Active means under 50% inhibition at 10 µM
# T2 sequence (P30988 whole entry): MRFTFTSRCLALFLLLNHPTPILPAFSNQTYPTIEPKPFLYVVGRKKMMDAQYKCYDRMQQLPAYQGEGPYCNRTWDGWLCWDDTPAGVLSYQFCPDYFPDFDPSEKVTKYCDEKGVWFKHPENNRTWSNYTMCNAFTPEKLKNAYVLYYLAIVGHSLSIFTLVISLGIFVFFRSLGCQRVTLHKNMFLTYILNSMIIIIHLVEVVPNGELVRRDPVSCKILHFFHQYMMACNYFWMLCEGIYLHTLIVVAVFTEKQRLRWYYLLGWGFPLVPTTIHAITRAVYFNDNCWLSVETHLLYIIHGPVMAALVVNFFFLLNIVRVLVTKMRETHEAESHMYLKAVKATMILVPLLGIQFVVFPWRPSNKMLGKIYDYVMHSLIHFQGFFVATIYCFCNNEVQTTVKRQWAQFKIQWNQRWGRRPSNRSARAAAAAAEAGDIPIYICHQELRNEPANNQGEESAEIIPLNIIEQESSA
# Glycine receptor = Glycine receptor (Rattus norvegicus, UniProt P22771+P24524+P07727+P20781); assay type: cell membranes, Wistar, Spinal cord, Membrane; also: in other assays of this panel Not Active means under 50% inhibition at 10 µM
# Histamine H2 receptor = Histamine H2 receptor (Homo sapiens, UniProt P25021); assay type: cell membranes, CHO-K1, Membrane; also: in other assays of this panel Not Active means under 50% inhibition at 10 µM
# Chain of Histamine H2 receptor (P25021 whole entry): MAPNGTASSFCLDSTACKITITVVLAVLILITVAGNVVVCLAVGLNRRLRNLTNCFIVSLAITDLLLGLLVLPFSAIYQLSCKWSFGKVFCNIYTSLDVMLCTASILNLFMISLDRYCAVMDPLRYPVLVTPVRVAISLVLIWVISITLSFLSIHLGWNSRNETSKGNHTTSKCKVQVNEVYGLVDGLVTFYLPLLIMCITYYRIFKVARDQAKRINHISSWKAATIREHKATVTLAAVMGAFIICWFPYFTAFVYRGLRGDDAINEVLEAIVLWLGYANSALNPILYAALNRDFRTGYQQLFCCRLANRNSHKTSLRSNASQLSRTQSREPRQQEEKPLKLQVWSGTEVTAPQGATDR
Structure (SMILES),IC50 [1],IC50 (Melanocortin receptor 4),IC50 [2],IC50 [3],Ki [3],IC50 [4],IC50 (Calcitonin receptor),IC50 (Glycine receptor),IC50 (Histamine H2 receptor; cho-k1),IC50 ([4]; read-out: IC50) [nM],Ki [4] [nM],IC50 (Histamine H2 receptor; read-out: IC50) [nM],Ki (Histamine H2 receptor; read-out: Ki) [nM]
COc1cc(N)nc2[nH]c(-c3ccc(F)cc3)c(-c3ccncc3)c12,Not Active,Not Active,Not Active,Not Active,Not Active,Not Active,Not Active,Not Active,Not Active,–,–,–,–
CNS(=O)(=O)Cc1ccc2[nH]cc(CCN(C)C)c2c1,Not Active,Not Active,Not Active,Not Active,Not Active,–,Not Active,Not Active,Not Active,–,–,–,–
CCCc1nn(C)c2c(=O)[nH]c(-c3cc(S(=O)(=O)N4CCN(C)CC4)ccc3OCC)nc12,Not Active,Not Active,Not Active,Not Active,Not Active,Not Active,Not Active,Not Active,Not Active,–,–,–,–
COc1ccc(/C=C/C(=O)Nc2ccccc2C(=O)O)cc1OC,Not Active,Not Active,Not Active,Not Active,Not Active,Not Active,Not Active,Not Active,Not Active,–,–,–,–
CCOC(N)=O,Not Active,Not Active,Not Active,Not Active,Not Active,Not Active,Not Active,Not Active,Not Active,–,–,–,–
CC(=O)Nc1nnc(S(N)(=O)=O)s1 [ACETAZOLAMIDE],Not Active,Not Active,Not Active,–,–,Not Active,Not Active,Not Active,Not Active,–,–,–,–
O=c1[nH]c2ccccc2n1CCCN1CCC(n2c(=O)[nH]c3cc(Cl)ccc32)CC1 [DOMPERIDONE],Not Active,Not Active,Not Active,–,–,Not Active,Not Active,Not Active,Not Active,–,–,–,–
CC1=C(CC(=O)O)c2cc(F)ccc2/C1=C\c1ccc(S(C)(=O)=O)cc1 [EXISULIND],Not Active,Not Active,Not Active,Not Active,Not Active,Not Active,Not Active,Not Active,Not Active,–,–,–,–
CC(C)OC(=O)C(C)(C)Oc1ccc(C(=O)c2ccc(Cl)cc2)cc1 [FENOFIBRATE],Not Active,Not Active,Not Active,–,–,Not Active,Not Active,Not Active,Not Active,–,–,–,–
OCCN1CCN(CCCN2c3ccccc3Sc3ccc(C(F)(F)F)cc32)CC1 [FLUPHENAZINE],Not Active,Not Active,Not Active,–,–,–,Not Active,Not Active,–,1910,869,1230,1200
CN1C2CCCC1CC(NC(=O)c1nn(C)c3ccccc13)C2 (stereo not drawn) [GRANISETRON],Not Active,Not Active,Not Active,–,–,Not Active,Not Active,Not Active,Not Active,–,–,–,–
Nc1nc2c(c(=O)[nH]1)N(C=O)C(CNc1ccc(C(=O)N[C@@H](CCC(=O)O)C(=O)O)cc1)CN2 (stereo partly drawn) [LEUCOVORIN],Not Active,Not Active,Not Active,Not Active,Not Active,Not Active,Not Active,Not Active,Not Active,–,–,–,–
C[C@@H](O)[C@H]1C(=O)N2C(C(=O)O)=C(S[C@@H]3CN[C@H](C(=O)N(C)C)C3)[C@H](C)[C@H]12 [MEROPENEM],Not Active,Not Active,Not Active,Not Active,Not Active,Not Active,Not Active,Not Active,Not Active,–,–,–,–
CC[C@@H](CO)NC(=O)[C@@H]1C=C2c3cccc4c3c(cn4C)C[C@H]2N(C)C1 [METHYSERGIDE],Not Active,Not Active,Not Active,–,–,–,Not Active,Not Active,Not Active,177,108,–,–
CCN(CC)CC#CCOC(=O)C(O)(c1ccccc1)C1CCCCC1 (stereo not drawn) [OXYBUTYNIN],Not Active,Not Active,Not Active,–,–,Not Active,Not Active,Not Active,Not Active,–,–,–,–
O=P(O)(O)C(O)(Cc1cccnc1)P(=O)(O)O [RISEDRONIC ACID],Not Active,Not Active,Not Active,Not Active,Not Active,Not Active,Not Active,Not Active,Not Active,–,–,–,–
CN(CCOc1ccc(CC2SC(=O)NC2=O)cc1)c1ccccn1 (stereo not drawn) [ROSIGLITAZONE],Not Active,Not Active,Not Active,Not Active,Not Active,Not Active,Not Active,Not Active,Not Active,–,–,–,–
C=C(C)[C@H]1Cc2c(ccc3c2O[C@@H]2COc4cc(OC)c(OC)cc4[C@@H]2C3=O)O1 [ROTENONE],Not Active,Not Active,Not Active,Not Active,Not Active,Not Active,Not Active,Not Active,Not Active,–,–,–,–
C#CCN(C)[C@H](C)Cc1ccccc1 [SELEGILINE],Not Active,Not Active,Not Active,Not Active,Not Active,Not Active,Not Active,Not Active,Not Active,–,–,–,–
CO[C@H]1C[C@@H]2CC[C@@H](C)[C@@](O)(O2)C(=O)C(=O)N2CCCC[C@H]2C(=O)O[C@H]([C@H](C)C[C@@H]2CC[C@@H](O)[C@H](OC)C2)CC(=O)[C@H](C)/C=C(\C)[C@@H](O)[C@@H](OC)C(=O)[C@H](C)C[C@H](C)/C=C/C=C/C=C/1C [SIROLIMUS],Not Active,Not Active,Not Active,Not Active,Not Active,Not Active,Not Active,Not Active,Not Active,–,–,–,–
CN[C@@H]1[C@H](O)[C@H](NC)[C@H]2O[C@@]3(O)C(=O)C[C@@H](C)O[C@H]3O[C@@H]2[C@H]1O [SPECTINOMYCIN],Not Active,Not Active,Not Active,Not Active,Not Active,Not Active,Not Active,Not Active,Not Active,–,–,–,–
Nc1ccc(S(=O)(=O)Nc2ncccn2)cc1 [SULFADIAZINE],Not Active,Not Active,Not Active,Not Active,Not Active,Not Active,Not Active,Not Active,Not Active,–,–,–,–
COc1ncnc(NS(=O)(=O)c2ccc(N)cc2)c1OC [SULFADOXINE],Not Active,Not Active,Not Active,Not Active,Not Active,Not Active,Not Active,Not Active,Not Active,–,–,–,–
O=c1n(CCCN2CCN(c3cccc(Cl)c3)CC2)nc2ccccn12 [TRAZODONE],Not Active,Not Active,Not Active,–,–,–,Not Active,Not Active,Not Active,1360,830,–,–
